From ChEMBL document CHEMBL1151433, “National and regional assessment of antimicrobial resistance among community-acquired respiratory tract pathogens identified in a 2005-2006 U.S. Faropenem surveillance study” (2007)
Converted amounts (≈) assume the structure as drawn.

Key:
Streptococcus pneumoniae [1] = assay: Antibacterial activity against Streptococcus pneumoniae ATCC 49619 isolated from respiratory tract infected patients assessed as susceptible isolates after 20 to 24 hrs by broth microdilution method; type: functional
Streptococcus pneumoniae [2] = assay: Antibacterial activity against Streptococcus pneumoniae ATCC 49619 isolated from respiratory tract infected patients assessed as resistant isolates after 20 to 24 hrs by broth microdilution method; type: functional
Haemophilus influenzae [3] = assay: Antibacterial activity against beta lactamase-positive Haemophilus influenzae […] isolated from respiratory tract infected patients assessed as resistant isolates after 20 to 24 hrs by broth microdilution method; type: functional, ATCC 49247
Streptococcus pneumoniae [4] = assay: Antibacterial activity against penicillin-resistant Streptococcus pneumoniae ATCC 49619 isolated from respiratory tract infected patients assessed as susceptible isolates after 20 to 24 hrs by broth microdilution method; type: functional
Streptococcus pneumoniae [5] = assay: Antibacterial activity against penicillin-susceptible Streptococcus pneumoniae ATCC 49619 isolated from respiratory tract infected patients assessed as susceptible isolates after 20 to 24 hrs by broth microdilution method; type: functional
Streptococcus pneumoniae [6] = assay: Antibacterial activity against penicillin-susceptible Streptococcus pneumoniae ATCC 49619 isolated from respiratory tract infected patients assessed as resistant isolates after 20 to 24 hrs by broth microdilution method; type: functional
Haemophilus influenzae [7] = assay: Antibacterial activity against Haemophilus influenzae […] isolated from respiratory tract infected patients after 20 to 24 hrs by broth microdilution method; type: functional; details: ATCC 49247
Streptococcus pneumoniae [8] = assay: Antibacterial activity against penicillin-susceptible Streptococcus pneumoniae ATCC 49619 isolated from respiratory tract infected patients after 20 to 24 hrs by broth microdilution method; type: functional
Streptococcus pneumoniae [9] = assay: Antibacterial activity against penicillin-resistant Streptococcus pneumoniae ATCC 49619 isolated from respiratory tract infected patients assessed as resistant isolates after 20 to 24 hrs by broth microdilution method; type: functional
Moraxella catarrhalis = assay: Antibacterial activity against Moraxella catarrhalis isolated from respiratory tract infected patients after 20 to 24 hrs by broth microdilution method; type: functional
Haemophilus influenzae [10] = assay: Antibacterial activity against beta lactamase-negative Haemophilus influenzae […] isolated from respiratory tract infected patients after 20 to 24 hrs by broth microdilution method; type: functional; details: ATCC 49247
Haemophilus influenzae [11] = assay: Antibacterial activity against beta lactamase-positive Haemophilus influenzae […] isolated from respiratory tract infected patients after 20 to 24 hrs by broth microdilution method; type: functional; details: ATCC 49247
Streptococcus pneumoniae [12] = assay: Antibacterial activity against Streptococcus pneumoniae ATCC 49619 isolated from respiratory tract infected patients after 20 to 24 hrs by broth microdilution method; type: functional
Haemophilus influenzae [13] = assay: Antibacterial activity against beta lactamase-positive Haemophilus influenzae […] isolated from respiratory tract infected patients assessed as susceptible isolates after 20 to 24 hrs by broth microdilution method; type: functional, ATCC 49247
Haemophilus influenzae [14] = assay: Antibacterial activity against beta lactamase-negative Haemophilus influenzae […] isolated from respiratory tract infected patients assessed as resistant isolates after 20 to 24 hrs by broth microdilution method; type: functional, ATCC 49247
Streptococcus pneumoniae [15] = assay: Antibacterial activity against penicillin-intermediate Streptococcus pneumoniae ATCC 49619 isolated from respiratory tract infected patients assessed as susceptible isolates after 20 to 24 hrs by broth microdilution method; type: functional
Streptococcus pneumoniae [16] = assay: Antibacterial activity against penicillin-intermediate Streptococcus pneumoniae ATCC 49619 isolated from respiratory tract infected patients after 20 to 24 hrs by broth microdilution method; type: functional
Haemophilus influenzae [17] = assay: Antibacterial activity against Haemophilus influenzae […] isolated from respiratory tract infected patients assessed as susceptible isolates after 20 to 24 hrs by broth microdilution method; type: functional, ATCC 49247
Haemophilus influenzae [18] = assay: Antibacterial activity against beta lactamase-negative Haemophilus influenzae […] isolated from respiratory tract infected patients assessed as susceptible isolates after 20 to 24 hrs by broth microdilution method; type: functional
Streptococcus pneumoniae [19] = assay: Antibacterial activity against penicillin-resistant Streptococcus pneumoniae ATCC 49619 isolated from respiratory tract infected patients after 20 to 24 hrs by broth microdilution method; type: functional
Haemophilus influenzae [20] = assay: Antibacterial activity against Haemophilus influenzae […] isolated from respiratory tract infected patients assessed as resistant isolates after 20 to 24 hrs by broth microdilution method; type: functional, ATCC 49247
Streptococcus pneumoniae [21] = assay: Antibacterial activity against penicillin-intermediate Streptococcus pneumoniae ATCC 49619 isolated from respiratory tract infected patients assessed as resistant isolates after 20 to 24 hrs by broth microdilution method; type: functional
Streptococcus pneumoniae [22] = assay: Antibacterial activity against Streptococcus pneumoniae ATCC 49619 isolated from respiratory tract infected inpatients assessed as resistant isolates after 20 to 24 hrs by broth microdilution method; type: functional
Streptococcus pneumoniae [23] = assay: Antibacterial activity against Streptococcus pneumoniae ATCC 49619 isolated from respiratory tract infected patients with 15 to 64 years of age after 20 to 24 hrs by broth microdilution method; type: functional
Streptococcus pneumoniae [24] = assay: Antibacterial activity against Streptococcus pneumoniae ATCC 49619 isolated from respiratory tract infected outpatients assessed as resistant isolates after 20 to 24 hrs by broth microdilution method; type: functional
Streptococcus pneumoniae [25] = assay: Antibacterial activity against Streptococcus pneumoniae ATCC 49619 isolated from respiratory tract infected patients within 2 years of age assessed as resistant isolates after 20 to 24 hrs by broth microdilution method; type: functional
Streptococcus pneumoniae [26] = assay: Antibacterial activity against Streptococcus pneumoniae ATCC 49619 isolated from respiratory tract infected male patients assessed as resistant isolates after 20 to 24 hrs by broth microdilution method; type: functional
Streptococcus pneumoniae [27] = assay: Antibacterial activity against Streptococcus pneumoniae ATCC 49619 isolated from respiratory tract infected outpatients after 20 to 24 hrs by broth microdilution method; type: functional
Streptococcus pneumoniae [28] = assay: Antibacterial activity against Streptococcus pneumoniae ATCC 49619 isolated from respiratory tract infected female patients assessed as resistant isolates after 20 to 24 hrs by broth microdilution method; type: functional
Streptococcus pneumoniae [29] = assay: Antibacterial activity against Streptococcus pneumoniae ATCC 49619 isolated from respiratory tract infected inpatients after 20 to 24 hrs by broth microdilution method; type: functional
Streptococcus pneumoniae [30] = assay: Antibacterial activity against Streptococcus pneumoniae ATCC 49619 isolated from respiratory tract infected male patients after 20 to 24 hrs by broth microdilution method; type: functional
Streptococcus pneumoniae [31] = assay: Antibacterial activity against Streptococcus pneumoniae ATCC 49619 isolated from respiratory tract infected patients with 3 to 5 years of age assessed as resistant isolates after 20 to 24 hrs by broth microdilution method; type: functional
Streptococcus pneumoniae [32] = assay: Antibacterial activity against Streptococcus pneumoniae ATCC 49619 isolated from respiratory tract infected patients more than 65 years of age assessed as resistant isolates after 20 to 24 hrs by broth microdilution method; type: functional
Streptococcus pneumoniae [33] = assay: Antibacterial activity against Streptococcus pneumoniae ATCC 49619 isolated from respiratory tract infected patients with 6 to 14 years of age after 20 to 24 hrs by broth microdilution method; type: functional
Streptococcus pneumoniae [34] = assay: Antibacterial activity against Streptococcus pneumoniae ATCC 49619 isolated from respiratory tract infected patients within 2 years of age after 20 to 24 hrs by broth microdilution method; type: functional
Streptococcus pneumoniae [35] = assay: Antibacterial activity against Streptococcus pneumoniae ATCC 49619 isolated from respiratory tract infected patients with 6 to 14 years of age assessed as resistant isolates after 20 to 24 hrs by broth microdilution method; type: functional
Streptococcus pneumoniae [36] = assay: Antibacterial activity against Streptococcus pneumoniae ATCC 49619 isolated from respiratory tract infected patients with 3 to 5 years of age after 20 to 24 hrs by broth microdilution method; type: functional
Streptococcus pneumoniae [37] = assay: Antibacterial activity against Streptococcus pneumoniae ATCC 49619 isolated from respiratory tract infected patients with 15 to 64 years of age assessed as resistant isolates after 20 to 24 hrs by broth microdilution method; type: functional
Streptococcus pneumoniae [38] = assay: Antibacterial activity against Streptococcus pneumoniae ATCC 49619 isolated from respiratory tract infected female patients after 20 to 24 hrs by broth microdilution method; type: functional
Streptococcus pneumoniae [39] = assay: Antibacterial activity against Streptococcus pneumoniae ATCC 49619 isolated from respiratory tract infected patients more than 65 years of age after 20 to 24 hrs by broth microdilution method; type: functional

`CO/N=C(\C(=O)N[C@@H]1C(=O)N2C(C(=O)O)=C(COC(N)=O)CS[C@H]12)c1ccco1` [CEFUROXIME] showed an Activity (Streptococcus pneumoniae [1]) of 78.2%, an Activity (Streptococcus pneumoniae [2]) of 18.7% and an Activity (Haemophilus influenzae [3]) of 0.7%. The Activity (Streptococcus pneumoniae [4]) was 0%, the Activity (Streptococcus pneumoniae [5]) was 99.9% and the Activity (Streptococcus pneumoniae [6]) was 0%. It also gave an MIC50 (Haemophilus influenzae [7]) of 1 µg/mL (≈ 2.36 µM), an MIC90 (Haemophilus influenzae [7]) of 2 µg/mL (≈ 4.71 µM) and an MIC50 (Streptococcus pneumoniae [8]) of no more than 0.5 µg/mL. It also gave an MIC90 (Streptococcus pneumoniae [8]) of no more than 0.5 µg/mL, an Activity (Streptococcus pneumoniae [9]) of 99.2% and an MIC50 (Moraxella catarrhalis) of 1 µg/mL (≈ 2.36 µM). For the same compound, the MIC90 (Moraxella catarrhalis) was 2 µg/mL (≈ 4.71 µM), the MIC50 (Haemophilus influenzae [10]) was 1 µg/mL (≈ 2.36 µM) and the MIC90 (Haemophilus influenzae [10]) was 2 µg/mL (≈ 4.71 µM). The MIC50 (Haemophilus influenzae [11]) was 1 µg/mL (≈ 2.36 µM), the MIC90 (Haemophilus influenzae [11]) was 2 µg/mL (≈ 4.71 µM) and the MIC50 (Streptococcus pneumoniae [12]) was no more than 0.5 µg/mL. The MIC90 (Streptococcus pneumoniae [12]) was 8 µg/mL (≈ 18.9 µM), the Activity (Haemophilus influenzae [13]) was 96.3% and the Activity (Haemophilus influenzae [14]) was 0.2%. The Activity (Streptococcus pneumoniae [15]) was 74%, the MIC50 (Streptococcus pneumoniae [16]) was no more than 0.5 µg/mL and the MIC90 (Streptococcus pneumoniae [16]) was 4 µg/mL (≈ 9.43 µM). It also gave an Activity (Haemophilus influenzae [17]) of 97.6%, an Activity (Haemophilus influenzae [18]) of 98% and an MIC50 (Streptococcus pneumoniae [19]) of 8 µg/mL (≈ 18.9 µM). For the same compound, the MIC90 (Streptococcus pneumoniae [19]) was 16 µg/mL (≈ 37.7 µM), the Activity (Haemophilus influenzae [20]) was 0.3% and the Activity (Streptococcus pneumoniae [21]) was 12.7%.

`C=CC1=C(C(=O)O)N2C(=O)[C@@H](NC(=O)/C(=N\O)c3csc(N)n3)[C@H]2SC1` [CEFDINIR] gave an Activity (Streptococcus pneumoniae [1]) of 76.8%, an Activity (Streptococcus pneumoniae [2]) of 19.2% and an Activity (Streptococcus pneumoniae [4]) of 0%. For the same compound, the Activity (Streptococcus pneumoniae [5]) was 99.9%, the Activity (Streptococcus pneumoniae [22]) was 18.8% and the Activity (Streptococcus pneumoniae [6]) was 0%. It also gave an MIC90 (Streptococcus pneumoniae [23]) of 4 µg/mL (≈ 10.1 µM), a % susceptible (Haemophilus influenzae [7]) of 1% and an MIC50 (Haemophilus influenzae [7]) of 0.25 µg/mL (≈ 0.632 µM). It also gave an MIC50 (Streptococcus pneumoniae [8]) of no more than 0.06 µg/mL, an MIC90 (Streptococcus pneumoniae [8]) of 0.12 µg/mL (≈ 0.303 µM) and an Activity (Streptococcus pneumoniae [9]) of 100%. It also gave an Activity (Streptococcus pneumoniae [24]) of 19.6%, an MIC50 (Moraxella catarrhalis) of 0.25 µg/mL (≈ 0.632 µM) and an MIC90 (Moraxella catarrhalis) of 0.5 µg/mL (≈ 1.26 µM). The Activity (Streptococcus pneumoniae [25]) was 33.2%, the % susceptible (Haemophilus influenzae [10]) was 1% and the MIC50 (Haemophilus influenzae [10]) was 0.25 µg/mL (≈ 0.632 µM). The % susceptible (Haemophilus influenzae [11]) was 1%, the MIC50 (Haemophilus influenzae [11]) was 0.25 µg/mL (≈ 0.632 µM) and the MIC50 (Streptococcus pneumoniae [12]) was 0.12 µg/mL (≈ 0.303 µM). It also gave an MIC90 (Streptococcus pneumoniae [12]) of 8 µg/mL (≈ 20.2 µM), an Activity (Streptococcus pneumoniae [26]) of 19.8% and an MIC90 (Streptococcus pneumoniae [27]) of 8 µg/mL (≈ 20.2 µM). For the same compound, the Activity (Haemophilus influenzae [13]) was 94.4%, the Activity (Streptococcus pneumoniae [28]) was 18.3% and the MIC90 (Streptococcus pneumoniae [29]) was 8 µg/mL (≈ 20.2 µM). It also gave an MIC90 (Streptococcus pneumoniae [30]) of 8 µg/mL (≈ 20.2 µM), an Activity (Streptococcus pneumoniae [15]) of 67.5% and an Activity (Streptococcus pneumoniae [31]) of 23.2%. The MIC50 (Streptococcus pneumoniae [16]) was 0.25 µg/mL (≈ 0.632 µM), the MIC90 (Streptococcus pneumoniae [16]) was 2 µg/mL (≈ 5.06 µM) and the Activity (Streptococcus pneumoniae [32]) was 15.8%. It also gave an Activity (Haemophilus influenzae [17]) of 94.8%, an Activity (Haemophilus influenzae [18]) of 95% and an MIC50 (Streptococcus pneumoniae [19]) of 8 µg/mL (≈ 20.2 µM). For the same compound, the MIC90 (Streptococcus pneumoniae [33]) was 8 µg/mL (≈ 20.2 µM), the Activity (Streptococcus pneumoniae [21]) was 14.8% and the MIC90 (Streptococcus pneumoniae [34]) was greater than 8 µg/mL. For the same compound, the Activity (Streptococcus pneumoniae [35]) was 19.8%, the MIC90 (Streptococcus pneumoniae [36]) was greater than 8 µg/mL and the Activity (Streptococcus pneumoniae [37]) was 15.4%. For the same compound, the MIC90 (Streptococcus pneumoniae [38]) was 8 µg/mL (≈ 20.2 µM) and the MIC90 (Streptococcus pneumoniae [39]) was 4 µg/mL (≈ 10.1 µM).
